For 20 compounds, logP and chromatographic logP results are on record in US10047076B2, “Halogen-substituted compounds” (BAYER CROPSCIENCE AKTIENGESELLSCHAFT, priority 2014, dated 2018).

The data set is described as follows: log P determination by HPLC on reversed-phase column (C18), EEC Directive 79/831 Annex V.A8, acidic (formic acid). The note with it: HPLC method a), acetonitrile/water with formic acid. It counts as physicochemical. How it is done: ^1 The stated mass is the peak of the isotope pattern of the [M+H]^+ ion of the highest intensity; if the [M-H]^- ion was detected, the stated mass is identified with ^2. ^2 The stated mass is the peak of the isotope pattern of the [M-H]^- ion of the highest intensity. ^a) Note regarding the determination of the log P values and mass detection: The determination of the given log P values was carried out in accordance with EEC Directive 79/831 Annex V.A8 by HPLC (High Performance Liquid Chromatography) on a reversed-phase column (C18). […] Mass detection is effected by means of an […] system. ^b) Note regarding the determination of the retention time and mass detection: The stated retention times were determined on a reversed-phase column (C18) Shimadzu LCMS 2020; 50*3.0 Shimadzu shim-pack XR-ODS 2.2 micron; mobile phase A: water (0.05% TFA); mobile phase B: acetonitrile; linear gradient from 5% acetonitrile to 95% acetonitrile in 6.00 min, then 95% acetonitrile for a further 1.1 min; oven temperature 40° C.; flow rate: 1.0 ml/min. ^c) Note regarding the determination of the retention time and mass detection: Instrument: Waters ACQUITY SQD UPLC system; column. Waters Acquity UPLC HSS T3 1.8μ 50×1 mm; mobile phase A: 1 l of water+0.25 ml of 99% strength formic acid, mobile phase B: 1 l of acetonitrile+0.25 ml of 99% strength formic acid; gradient: 0.0 min 90% A→1.2 min 5% A→2.0 min 5% A oven: 50° C.; flow rate: 0.40 ml/min; UV detection: 208-400 nm. ^d) Note regarding the determination of the retention time and mass detection: […] The determination of the given log P values was carried out in accordance with EEC Directive 79/831 Annex V.A8 by HPLC (High Performance Liquid Chromatography) on a reversed-phase column (C18). […] Mass detection is effected by means of an […] system.

By logP is commonly meant the decadic logarithm of the partition coefficient of the neutral form, usually between octanol and water. A higher logP goes with higher lipophilicity. `CC(C)n1nc(-c2c(C(F)(F)F)c(C(F)(F)C(F)(F)F)nn2C)nc1-c1ccc(Cl)c(C(=O)NCc2ccccc2)c1` [Ibh-9] displayed a logP of 4.98. The same measure, in the same setting: the result for `CC(C)n1nc(-c2c(C(F)(F)F)c(C(F)(F)C(F)(F)F)nn2C)nc1-c1ccc(Cl)c(C(=O)NCC(F)(F)F)c1` [Ibh-7] reads 4.68.

In turn, `Cn1nc(C(F)(F)C(F)(F)F)c(C(F)(F)F)c1-c1nnc(-c2ccc(Cl)c(C(=O)NCC(F)(F)F)c2)[nH]1` [Ibi-2] gave a logP of 3.73. A word on the chromatographic logP: it is a lipophilicity value derived from retention on a column. Higher therefore signals a more lipophilic compound. In turn, `Cn1nc(-c2cccc(C(=O)NCc3ccccc3)c2)nc1-c1c(C(F)(F)F)c(C(F)(F)C(F)(F)F)nn1C` [Ibg-15, N-benzyl-3-{1-methyl-5-[1-methyl-3-(pentafluoroethyl)-4-(trifluoromethyl)-1H-pyrazol-5-yl]-1H-1,2,4-triazol-3-yl}benzamide] came in with a chromatographic logP of 4.24. On to `CC(C)n1nc(-c2ccc(Cl)c(C(=O)Nc3ccccc3)c2)nc1-c1c(C(F)(F)F)c(C(F)(F)C(F)(F)F)nn1C` [Ibg-11], for which the logP was determined as 5.13. `CN(C(=O)c1cccc(-c2cc(-c3c(C(F)(F)F)c(C(F)(F)C(F)(F)F)nn3C)n(C)n2)c1)C1CC1` [Iaw-1, N-cyclopropyl-3-[2,2′-dimethyl-5′-(pentafluoroethyl)-4′-(trifluoromethyl)-2H,2′H-3,3′-bipyrazol-5-yl]-N-methylbenzamide] registered a chromatographic logP of 3.94. Turning to `CC(C)n1nc(-c2c(C(F)(F)F)c(C(F)(F)C(F)(F)F)nn2C)nc1-c1ccc(Cl)c(C(=O)Nc2ccccc2)c1` [Ibh-12], the logP was 5.23. The same measure, in the same setting: under `Cn1nc(C(F)(F)C(F)(F)F)c(C(F)(F)F)c1-c1nc(-c2ccc(Cl)c(C(=O)NCc3ccccc3)c2)ns1` [Ibd-1] stands 5.00; under `Cn1nc(C(F)(F)C(F)(F)F)c(C(F)(F)F)c1-c1nc(-c2cccc(C(=O)NCC(F)(F)F)c2)n[nH]1` [Ibg-3], 3.54. On to `Cn1nc(C(F)(F)C(F)(F)F)c(C(F)(F)F)c1-c1nc(-c2cccc(C(=O)NCc3ccccc3)c2)n[nH]1` [Ibg-1, N-benzyl-3-{5-[1-methyl-3-(pentafluoroethyl)-4-(trifluoromethyl)-1H-pyrazol-5-yl]-1H-1,2,4-triazol-3-yl}benzamide], for which the chromatographic logP worked out at 3.8. Take `Cn1nc(C(F)(F)C(F)(F)F)c(C(F)(F)F)c1-c1nnc(-c2ccc(Cl)c(C(=O)Nc3ccccc3)c2)[nH]1` [Ibi-4]: the logP was determined as 4.13. Turning to `Cn1nc(-c2ccc(Cl)c(C(=O)NCc3ccccc3)c2)nc1-c1c(C(F)(F)F)c(C(F)(F)C(F)(F)F)nn1C` [Ibg-10], the logP worked out at 4.43. Still for that read-out and setting: the result for `Cn1nc(C(F)(F)C(F)(F)F)c(C(F)(F)F)c1-c1noc(-c2ccc(Cl)c(C(=O)NCc3ccccc3)c2)n1` [Ibe-2] reads 4.76; that for `Cn1nc(-c2c(C(F)(F)F)c(C(F)(F)C(F)(F)F)nn2C)nc1-c1ccc(Cl)c(C(=O)Nc2ccccc2)c1` [Ibh-14], 4.42. For the compound `Cn1nc(-c2ccc(Cl)c(C(=O)Nc3ccccc3)c2)nc1-c1c(C(F)(F)F)c(C(F)(F)C(F)(F)F)nn1C` [Ibg-14], the logP was determined as 4.56. Same read-out and setting: the result for `Cn1nc(C(F)(F)C(F)(F)F)c(C(F)(F)F)c1-c1nnc(-c2ccc(Cl)c(C(=O)NC3CC3)c2)[nH]1` [Ibi-3] reads 3.40. For `Cn1nc(-c2c(C(F)(F)F)c(C(F)(F)C(F)(F)F)nn2C)nc1-c1ccc(Cl)c(C(=O)NCc2ccccc2)c1` [Ibh-11], the logP is on record as 4.29. Compound `CCn1nc(-c2c(C(F)(F)F)c(C(F)(F)C(F)(F)F)nn2C)nc1-c1ccc(Cl)c(C(=O)Nc2ccccc2)c1` [Ibh-13] yielded a logP of 4.73.

`Cn1nc(-c2c(C(F)(F)F)c(C(F)(F)C(F)(F)F)nn2C)nc1-c1cccc(C(=O)NCc2ccccc2)c1` [Ibh-2, N-benzyl-3-{1-methyl-3-[1-methyl-3-(pentafluoroethyl)-4-(trifluoromethyl)-1H-pyrazol-5-yl]-1H-1,2,4-triazol-5-yl}benzamide] registered a chromatographic logP of 4.16. `Cn1nc(C(F)(F)C(F)(F)F)c(C(F)(F)F)c1-c1ncc(-c2cccc(C(N)=O)c2)s1` [Iaq-2] showed a log partition coefficient (logP) of 3.38.
